From patent US9248131B2, “Aquaporin modulators and methods of using them for the treatment of edema and fluid imbalance” (THE ARIZONA BOARD OF REGENTS ON BEHALF OF THE UNIVERSITY OF …, priority 2006, dated 2016)

Key:
[1] = target: T1, AQP4-expressing oocytes (Homo sapiens, UniProt P55087); assay: Simple screen: time to oocyte bursting in hypotonic saline; type: cell-based; settings: 100 μM; AQP4-expressing oocytes preincubated 10-15 min, then 100 mOsm saline
T1 construct: expressed in transfected cells; host or cells: Xenopus oocytes
T1 sequence (P55087 whole entry, species assumed): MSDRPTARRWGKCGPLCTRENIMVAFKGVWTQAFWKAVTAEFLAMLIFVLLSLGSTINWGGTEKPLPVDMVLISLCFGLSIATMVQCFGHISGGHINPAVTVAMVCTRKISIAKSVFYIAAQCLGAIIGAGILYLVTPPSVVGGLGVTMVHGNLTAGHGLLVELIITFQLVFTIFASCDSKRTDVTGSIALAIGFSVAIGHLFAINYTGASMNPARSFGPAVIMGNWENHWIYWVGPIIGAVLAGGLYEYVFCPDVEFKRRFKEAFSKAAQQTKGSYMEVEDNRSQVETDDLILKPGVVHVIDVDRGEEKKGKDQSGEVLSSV
Procedure: The composition of the library for initial AQP channel screening included various channel, transporter and receptor blocking compounds based on intuition and from clues regarding clinical side effects that involved water transporting tissues. In a simple screen (FIG. 1), control and AQP4-expressing oocytes were preincubated in isotonic saline (100 mM NaCl; 5 mM MgCl2; 5 mM HEPES, pH 7.3; ˜200 mOsm) containing the test compound for 10-15 min before each experiment; then the time to oocyte bursting (physical explosion) after transfer to 100 mOsm saline was monitored visually. […] Block was evident in the increased time required for bursting in hypotonic saline.

[2] = target: T2, native AQP4 in primary cultures of astroglia (Rattus norvegicus, UniProt P47863); assay: Astroglial swelling in primary hippocampal cultures after 50% hypotonic saline; type: cell-based; settings: 100 μM extracellular, 15 min preincubation
T2 construct: endogenous in cells; host or cells: rat primary hippocampal astroglial cultures
T2 sequence (P47863 whole entry): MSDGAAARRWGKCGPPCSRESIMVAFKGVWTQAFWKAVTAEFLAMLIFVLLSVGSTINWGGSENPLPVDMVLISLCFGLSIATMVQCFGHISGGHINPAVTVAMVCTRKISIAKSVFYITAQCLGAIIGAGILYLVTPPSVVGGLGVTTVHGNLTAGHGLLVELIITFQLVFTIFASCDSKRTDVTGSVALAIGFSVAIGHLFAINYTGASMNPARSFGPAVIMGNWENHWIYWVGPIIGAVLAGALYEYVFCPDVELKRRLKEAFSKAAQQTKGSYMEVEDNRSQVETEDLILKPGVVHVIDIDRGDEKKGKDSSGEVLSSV
Procedure: The role of native AQP4 as a target of block by bumetanide was tested in primary cultures of astroglia (FIG. 4). We compared the swelling responses of rat astroglial cells in primary hippocampal cultures after 15 min preincubation with or without drug. Swelling was induced by rapid perfusion of the culture plate with 50% hypotonic saline, either with or without extracellular bumetanide (100 μM) to match the preincubation condition. Glial cells were identified by morphological comparison with cells positive for a glial-specific marker (GFAP). Time-lapse images were taken at 15 second intervals before and during hypotonic challenge. The response was determined by the change in soma area as a function of time, as visualized by time-lapse digital imaging (Olympus MagnaFire™ camera and image acquisition software) using an inverted phase contrast microscope (Nikon); data were analyzed by Scion Image (NIH) software. Each culture was used for only one swelling trial. […]
FIG. 3 illustrates the protective effect of bumetanide on astroglial swelling in primary hippocampal cultures (14-15 days in vitro) after exposure to 50% hypotonic saline at time zero. Plot (left): Cell area visualized by phase contrast microscopy, standardized to the initial volume quantified by Scion Image (NIH) software. […]

[3] = tested on: ischemia-induced cerebral edema (MCAO); settings: cited from earlier work
[4] = target: T3, Na—K—Cl cotransporter (NKCC1) (Mus musculus, UniProt P55012); settings: read-out: IC50 (half-maximal blocking concentration) against Na—K—Cl cotransporter; mouse kidney collecting duct cell line; cited from earlier work
T3 sequence (P55012 1-1205): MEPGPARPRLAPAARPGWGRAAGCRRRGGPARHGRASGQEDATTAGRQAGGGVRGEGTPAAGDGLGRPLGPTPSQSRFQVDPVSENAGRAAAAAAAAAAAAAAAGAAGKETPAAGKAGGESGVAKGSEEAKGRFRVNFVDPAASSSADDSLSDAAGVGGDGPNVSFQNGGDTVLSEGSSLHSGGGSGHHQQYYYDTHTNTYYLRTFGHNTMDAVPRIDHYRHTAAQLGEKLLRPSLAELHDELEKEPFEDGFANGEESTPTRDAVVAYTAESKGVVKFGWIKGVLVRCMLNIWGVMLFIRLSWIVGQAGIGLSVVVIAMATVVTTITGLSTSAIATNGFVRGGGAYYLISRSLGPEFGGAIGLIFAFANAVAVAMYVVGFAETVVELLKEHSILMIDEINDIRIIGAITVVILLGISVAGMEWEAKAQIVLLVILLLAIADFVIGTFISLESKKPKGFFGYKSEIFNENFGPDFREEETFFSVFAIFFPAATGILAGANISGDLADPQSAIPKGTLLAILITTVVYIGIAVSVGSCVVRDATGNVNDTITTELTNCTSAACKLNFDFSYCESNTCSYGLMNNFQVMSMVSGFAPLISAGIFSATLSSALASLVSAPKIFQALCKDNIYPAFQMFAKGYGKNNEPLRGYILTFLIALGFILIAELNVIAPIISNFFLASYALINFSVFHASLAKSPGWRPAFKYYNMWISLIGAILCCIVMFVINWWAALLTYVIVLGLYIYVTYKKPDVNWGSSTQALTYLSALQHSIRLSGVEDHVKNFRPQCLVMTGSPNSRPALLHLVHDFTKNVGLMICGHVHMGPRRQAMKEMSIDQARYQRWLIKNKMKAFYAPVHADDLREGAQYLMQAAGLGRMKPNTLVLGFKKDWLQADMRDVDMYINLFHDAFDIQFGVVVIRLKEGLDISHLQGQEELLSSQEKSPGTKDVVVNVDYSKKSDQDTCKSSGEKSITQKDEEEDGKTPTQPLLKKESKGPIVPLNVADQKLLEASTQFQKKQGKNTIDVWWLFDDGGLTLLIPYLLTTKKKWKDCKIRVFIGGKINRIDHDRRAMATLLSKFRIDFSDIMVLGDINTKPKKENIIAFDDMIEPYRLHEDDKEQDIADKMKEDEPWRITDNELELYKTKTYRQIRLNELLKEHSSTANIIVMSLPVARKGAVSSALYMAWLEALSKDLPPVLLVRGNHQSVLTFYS

- time to oocyte bursting [1]: significantly delayed bursting time
- glial initial swelling (soma area) [2]: reduced
- regulatory volume decrease (RVD) [2]: reduced
SMILES: CCCCNc1cc(C(=O)O)cc(S(N)(=O)=O)c1Oc1ccccc1 [bumetanide]
- ischemia-induced cerebral edema ([3]; 30-mg/kg dose, rats, MCAO): effectively reduced ischemia-induced cerebral edema
- edema formation, magnetic resonance diffusion-weighted imaging ([3]; intravenous, first 3 hours of MCAO-induced cerebral ischemia): reduced edema formation
- lowest effective dose ([3]; rats, MCAO, reduction of edema): 7.6 mg/kg
- IC50 [4]: 0.33 µM
